Data from patent US20260193644A1, “Compositions and Methods For Modulation of Tumor Suppressors and Oncogenes” (FLAGSHIP PIONEERING INNOVATIONS VII, LLC, priority 2022, published 2026).
Values joined by “and” are separate entries in the source; they are usually repeats but may differ in a detail not shown here. Identical values can stand only once.

Experiments:
Format in all cases: cell-based
U2OS cells [1] = assay: WST-1 proliferation assay on U2OS cells treated with peptide
HCT116 cells = assay: WST-1 proliferation assay on HCT116 cells treated with peptide
Protocol: Proliferation: HCT-116 cells were plated in 96 well plate (5,000 cells/well) grown in standard media supplemented with 10% FBS. After 48 hours incubation at 37° C. (5% CO2), the cells are subjected to the WST-1 ([…]) assay. The WST-1 assay (Sigma) is a measure of the metabolic activity (i.e. proliferative rate) of cells. […]

U2OS cells [2] = assay: Caspase-Glo 3/7 apoptosis assay, peptide-treated U2OS cells; conditions: for z-score compared to vehicle control (peptides inducing significant apoptosis): listed = significant
Protocol: (§1) Cell Culture: Tumor cell lines HCT-116 (Colon Cancer Cell line, ATCC) and U2OS (Osteoscarcoma Cell line, ATCC) cells were grown adherently in ATCC-formulated McCoy's 5a medium supplemented with 10% FBS and 1× penicillin-streptomycin at 37° C. (5% CO2). Jurkat cells (acute T-cell leukemia cell line, ATCC) were grown as suspension cultures in ATCC-formulated RPMI-1640 supplemented with 10% FBS and 1× penicillin-streptomycin at 37° C. (5% CO2). HEP-G2 cells (Liver Cancer Cell line, ATCC) cells were grown adherently in ATCC-formulated Eagle's Minimum Essential Medium (EMEM) supplemented with 10% FBS and 1× penicillin-streptomycin at 37° C. (5% CO2).
(§2) Peptide Treatment: Target protein SEQ ID NO: 37997 was synthesized through Fluorenylmethyloxycarbonyl (Fmoc) protection group chemistry using Solid Phase Peptide Synthesis (SPPS). 5 μM of target peptide and control peptides were added to a 96 well plate containing 10,000 cells (100 μL/well). A white-walled 96-well plate adequate for cell culture and compatible with the luminometer was used. (Corning)
(§3) Apoptosis Assay: Following 24 hrs of peptide treatment, an equal volume reconstituted Caspase-Glo® 3/7 assay reagent mixture (Promega) was added to the cells. The contents of wells were gently mixed using a plate shaker at 300-500 rpm for 30 seconds. The plate was then Incubate at room temperature for 3 hours. The treated plates were then read for luminescence on Promega™ GloMax® Plate Reader. A blank reaction that contained caspase-Glo® 3/7 reagent, vehicle and cell culture medium without cells was used to measure background luminescence. The blank reaction values were subtracted from experimental values. A negative control that contained caspase-Glo® 3/7 reagent and vehicle-treated cells in medium was included to determine the basal caspase activity of the cell culture system. Significant difference in apoptosis was determined using ANOVA analysis by comparing cells treated with SEQ ID NO: 37997 peptide to cells treated with an irrelevant control peptide, or vehicle control treated cells.

Jurkat cells = assay: Caspase-Glo 3/7 apoptosis assay, peptide-treated Jurkat cells; conditions: listed = significant
Protocol: as §1, §2, §3

HCT-116 cells = assay: Caspase-Glo 3/7 apoptosis assay, peptide-treated HCT-116 cells; conditions: for peptides inducing significant apoptosis (z-score vs vehicle control): listed = significant
Protocol: as §1, §2, §3

[3] = system: HCT116 colon cancer cell line; assay: WST-1 proliferation assay on HCT116 cells stably over-expressing target protein; conditions: 48 hours
Protocol: Over-expression: Stable over-expression tumor cell lines were made by transduction using lentivirus. For virus production, HEK-293T cells were cultured in DMEM with high glucose and GlutaMAX™ medium (ThermoFisher) supplemented with 10% FBS. After 24 h, cells were transfected using lipofectamine 3000 (ThermoFisher) of Lentiviral packaging plasmid mix (CELLECTA) and pGenLenti plasmids (GenScript Inc) containing: 1) no insert, 2) Target Protein encoding sequence, and 3) the AP2A1 protein (positive control for cell proliferation; https://doi.org/10.1038/sj.one.1205216), into HCT116 (Colon cancer cell line; ATCC). A Myc-tag (EQKLISEEDL) was added to the c-terminus of the expressed protein. After 48 hr post-transfection, culture media containing viruses was collected, loaded onto a 10 ml syringe and filtered through a 0.45 μm filter. For cell transduction, HCT116 colorectal cancer cells were seeded in 6-well plates, the virus was added to the cells. After post-transduction, stable cell mixed populations are selected for with puromycin for 14 days. Expression of the Target Protein and controls are confirmed by immunoblot of 50 μg of cell lysate using anti-myc-tag polyclonal antibody (CST).
Proliferation: Polyclonal cell lines that over-express the Target Protein or control, wild-type HCT-116 cells, were plated in 96 well plate (10,000 or 5,000 cells per well) grown in standard media in both low serum (0.1% FBS) and high serum (10% FBS) conditions, respectively. After 48 hours, the cells are subjected to the WST-1 ([…]) assay. The WST-1 assay (Sigma) is a measure of the metabolic activity of group of cells. The higher the metabolic activity the higher the proliferation rate. Significant differences in proliferation are determined by comparing protein-expressing cell lines with a stable cell line of the empty expression vector (control) using ANOVA analysis.

[4] = Low sera (continued), 0.5 uM, head 3 SD
[5] = Low sera (continued), 0.1 uM, head 4 SD
[6] = 5 μM peptide, 24 hrs, vs vehicle control

For “SEQ ID NO: 27193: ORF peptide; sequence only in Sequence Listing (LRFKVLLRVLFFMAPVPPQVFGQ; listed as Homo sapiens)”, the “proliferation hit score, High sera” value (U2OS cells [1]; 5 uM, head 5 SD) was 15.33 SD, the “proliferation hit score, Low sera” value (U2OS cells [1]; [4]) was 1.975 SD and the “proliferation hit score, Low sera” value (U2OS cells [1]; Low sera, 5 uM, head 2 SD) was 2.319 SD. The “proliferation hit score, High sera” value (HCT116 cells; 0.5 uM, head 3 SD) was 1.079 SD, the “proliferation hit score, High sera” value (HCT116 cells; 5 uM, head 3 sd) was 0.8327 SD and the “proliferation hit score, Low sera” value (HCT116 cells; [4]) was 1.081 SD. The “proliferation hit score, Low sera” value (HCT116 cells; Low sera, 5 uM, head 2 SD) was 0.6897 SD, the “z-score compared to vehicle control (peptides inducing significant apoptosis)” value (U2OS cells [2]) was “SEQ ID NO: 27193” and the “peptides inducing significant apoptosis vs vehicle control” value (Jurkat cells) was “SEQ ID NO: 27193”. The “peptides inducing significant apoptosis (z-score vs vehicle control)” value (HCT-116 cells) was “SEQ ID NO: 27193”.

With “SEQ ID NO: 29485: ORF peptide; sequence only in Sequence Listing (MRSPLSASALLLWSSSVARAFSSPSLLMAVPSPTCSRY; listed as Homo sapiens)” the “proliferation hit score, Low sera” value (U2OS cells [1]; [5]) was 2.026 SD and 1.922 SD, the “proliferation hit score, Low sera” value (U2OS cells [1]; Low sera, 1 uM, head 5 SD) was 3.795 SD and 2.322 SD and the “proliferation hit score, Low sera” value (U2OS cells [1]; Low sera, 10 uM, head 6 SD) was 5.612 SD and 4.323 SD. The “peptides inducing significant apoptosis vs vehicle control” value (Jurkat cells) was “SEQ ID NO: 29485” and the “peptides inducing significant apoptosis (z-score vs vehicle control)” value (HCT-116 cells) was “SEQ ID NO: 29485”.

“SEQ ID NO: 34296: ORF peptide; sequence only in Sequence Listing (MFFCRNYGSFWFYVLSKMLSFFICLLIFVHLLLLSFLISDWPPPTGSAEHKYSG; listed as Homo sapiens)” was tested, and the “peptides inducing significant apoptosis vs vehicle control” value (Jurkat cells) was “SEQ ID NO: 34296”.

“SEQ ID NO: 36828: ORF peptide; sequence only in Sequence Listing (MAIFFFFCIIVSSLPTAELGTENACSTCLLNE; listed as Homo sapiens)” was tested, and the “z-score compared to vehicle control (peptides inducing significant apoptosis)” value (U2OS cells [2]) was “SEQ ID NO: 36828” and the “peptides inducing significant apoptosis vs vehicle control” value (Jurkat cells) was “SEQ ID NO: 36828”.

With “SEQ ID NO: 37997: synthetically produced target protein, secreted tumor suppressor; sequence only in Sequence Listing (MSRLSLSWESLTNAIWPLDLQDIKGYLPNPLPQRVNLRKQILSISKEPN; listed as Homo sapiens)” the “proliferation hit score, High sera” value (U2OS cells [1]; 1 uM, head 5 SD) was −5.9599 SD, the “proliferation hit score, High sera” value (U2OS cells [1]; 10 uM, head 8 SD) was −13.23 SD and the “proliferation hit score, Low sera” value (U2OS cells [1]; Low sera (continued), 0.1 uM, head 2 SD) was −2.359 SD. The “proliferation hit score, Low sera” value (U2OS cells [1]; [5]) was 1.922 SD, the “proliferation hit score, Low sera” value (U2OS cells [1]; Low sera, 1 uM, head 5 SD) was 0.3203 SD and the “proliferation hit score, Low sera” value (U2OS cells [1]; Low sera, 10 uM, head 6 SD) was −16.09 SD. The “proliferation (WST-1) vs irrelevant peptide or untreated cells” value (HCT116 cells; 10 μM, 10% serum, 48 hours) was “significantly decreases proliferation”, the “proliferation hit score, High sera” value (HCT116 cells; 0.1 uM, head 3 SD) was −3.114 SD and the “proliferation hit score, High sera” value (HCT116 cells; 1 uM, head 2 SD) was −5.8 SD. For the same molecule, the “proliferation hit score, High sera” value (HCT116 cells; 10 uM, head 4 SD) was −11.51 SD, the “proliferation hit score, Low sera” value (HCT116 cells; Low sera, 1 uM, head 3 SD) was −3.015 SD and the “proliferation hit score, Low sera” value (HCT116 cells; Low sera, 10 uM, head 3 SD) was −6.915 SD. The basal apoptosis levels (U2OS cells [2]; [6]) was “increase in basal apoptosis levels” and the basal apoptosis levels (HCT-116 cells; [6]) was “increase in basal apoptosis levels”.

B1: SEQ ID NO: 27000: ORF peptide; sequence only in Sequence Listing (peptide, listed as Homo sapiens)
chain: MNLNPRLRLQVISFHPHPKALAVTLLPALTQSLCLCMASCVYSGPKGFLFLFFPQTAQEKHMKNIT
In the case of B1, the “proliferation hit score, Low sera” value (U2OS cells [1]; [5]) is reported as 7.758 SD and 7.542 SD, the “proliferation hit score, Low sera” value (U2OS cells [1]; Low sera, 1 uM, head 5 SD) is reported as 5.685 SD and 9.031 SD and the “z-score compared to vehicle control (peptides inducing significant apoptosis)” value (U2OS cells [2]) is reported as “SEQ ID NO: 27000”. For the same molecule, the “peptides inducing significant apoptosis vs vehicle control” value (Jurkat cells) was “SEQ ID NO: 27000” and the “peptides inducing significant apoptosis (z-score vs vehicle control)” value (HCT-116 cells) was “SEQ ID NO: 27000”.

B2: SEQ ID NO: 27301: target protein over-expressed (Myc-tagged) in stable HCT116 cell line; oncogene (protein, listed as Homo sapiens)
chain: MVEKSHPSSLPTLPQPLNHCPETYMLLSAAPSGASQLLSTLTLFLKKHRMDIRTISLRMLLSHTGKLAL
modifications: Myc tag
notes: oncogene
In the case of B2, the “proliferation (WST-1) on over-expression vs Empty Vector” value ([3]; high serum (10% FBS)) is reported as “significantly increases proliferation” and the “proliferation (WST-1) on over-expression vs Empty Vector” value ([3]; low serum (0.1% FBS)) is reported as “significantly increases proliferation”.
